Entries after “also recorded” stand apart in the source; their conditions may differ.
Legend:
[1] = system: RINm, N289, TR4, CRL 2057, CRL 1777, CRL 2055; assay: Insulin secretion of insulin-producing cell lines; assay type: cell-based; details: six insulin-producing cell lines
Excerpt: A similar mechanism has been described for amylin (R. A. Pittner et al., J. Cell. Biochem. 55S, 19 (1994)).

rat isolated islets = assay: Insulin release from rat isolated islets (RIA); assay type: cell-based
Procedure: Dose-dependent increase of intracellular cAMP in the islets following addition of AM. Islets from six rats were isolated following well-established protocols (Gray, et al., Diabetes 33, 1055 (1984)). Assays were performed in 24-well plates (90 islets per well). After a 45 min incubation in […] medium containing 5.6 mM glucose, a second incubation in RPMI containing 20.6 mM glucose and the proper concentration of AM and/or the antibody was performed. Supernatants from both incubations were tested by radioimmunoassay (RIA) for insulin (Amersham, Arlington Heights, Ill.). The ratio between the insulin concentration found in the high glucose supernatant and the insulin measured in the low glucose solution is represented in ordinates. After collecting the medium, the islets from the same experiments were saved for analysis of cAMP contents (Korman, et al., Cancer Res. 46, 1214 (1986)). Islets were extracted in 50% ethanol and centrifuged, and the supernatants were tested for cAMP using a RIA kit (New England Nuclear, Boston, Mass.) following manufacturer's instructions. The experiments were repeated three times and a representative example shown. Data are means±standard deviations of two wells.

[2] = system: tumor cell lines (lung, colon, breast, brain, and ovary); assay type: cell-based, human; details: R0-grown cultures; AM 0.1 μM to 100 μM, 0.1 nM to 100 nM
Excerpt: Results Obtained by Immunohistochemical (IHc) and in situ RT-PCR examination of paraffin-embedded RO-adapted cell lines were consistent with previously reported data on normal lung and pathological lung specimens (Martinez, A., et al., Endocrinology 136:4099-4105 (1995)). […] To further investigate this suspected phenomenon, MTT assay techniques were used to examine the effects of AM on the growth of several diverse tumor cell lines (lung, colon, breast, brain, and ovary). […] Since the test cells were known to produce authentic AM peptide, we assumed that this inability to stimulate growth with extrinsic ligand could possibly mean that the cells has already achieved maximal proliferative effects using their own AM.
i. Growth Assays: MTT techniques were performed as previously described (Nakanishi, Y. F., et al., Exper. Cell Biol. 56:74-85 (1988)). In brief, a single cell suspension of 2×10^5 cells/ml (50 μl/well) is seeded into 96-well PVC plates and an appropriate concentration of MoAb-G6 and AM was added in a volume of 50 μl. The assay is performed in TIS medium (RMPI 1640 plus 10 μg/ml transferrin, 10 μg/ml insulin and 3×10^−8M sodium selenite). […] The Biorad Microplate Manager plate reader and software was used to determine the change in number of viable cells from dye reduction measured by absorbance at 570 nm. […]

S. aureus = assay: Micro-/macrodilutional assays, S. aureus; assay type: cell-based, Staphylococcus aureus; details: microdilutional or macrodilutional assays
Procedure: (§1) Inhibition of growth of E. coli was assessed in a microdilutional timed kill assay. (See FIG. 22) Bacteria and Candida albicans were grown overnight on trypticase soy agar (TSA) and Sobouraud dextrose agar (SDA) plates, respectively, were suspended into RPMI-1640 medium (Bio-Whittaker) and adjusted to a final concentration of 8×10^3 cfu/ml in […] in plastic microdilution trays. […] Plates were incubated at 37° C. with gentle agitation over 24 hours. At 6 hr and 24 hr time points, 10 to […] aliquots from each well were quantitatively cultured by serial 100-fold dilutions onto TSA and SDA plates.
(§2) Data were compiled from six experiments. Macrodilution assays were performed in 12×75 mm borosilicate glass tubes. Organisms were grown and harvested, as described in Roilides, E., et al., J Infect Dis. 163:579 (1991), and adjusted to a final inoculum concentration of 8×10^3 cfu/ml in 400 μl. […] Tubes were incubated at 37° C. with gentle agitation over 24 hours. At 6 and 24 hour time points, 100 μl aliquots from each tube were quantitatively cultured by serial 100-fold dilutions onto TSA and SDA plates.

P. aeruginosa = assay: Micro-/macrodilution timed kill assay, P. aeruginosa; assay type: cell-based, Pseudomonas aeruginosa; details: 24 hours exposure compared with 6 hours incubation
Procedure: as §1, §2

CC[C@H](C)[C@H](NC(=O)[C@H](CCC(N)=O)NC(=O)[C@H](Cc1c[nH]cn1)NC(=O)[C@H](C)NC(=O)[C@H](CC(C)C)NC(=O)[C@H](CCCCN)NC(=O)[C@H](CCC(N)=O)NC(=O)[C@@H](NC(=O)[C@@H](NC(=O)[C@@H]1CSSC[C@H](NC(=O)CNC(=O)[C@H](Cc2ccccc2)NC(=O)[C@H](CO)NC(=O)[C@H](CCCNC(=N)N)NC(=O)[C@H](CC(C)C)NC(=O)CNC(=O)[C@H](CCC(N)=O)NC(=O)[C@H](Cc2ccccc2)NC(=O)[C@H](CC(N)=O)NC(=O)[C@H](CC(N)=O)NC(=O)[C@H](CCSC)NC(=O)[C@H](CO)NC(=O)[C@H](CCC(N)=O)NC(=O)[C@H](CCCNC(=N)N)NC(=O)[C@@H](N)Cc2ccc(O)cc2)C(=O)N[C@@H](CCCNC(=N)N)C(=O)N[C@@H](Cc2ccccc2)C(=O)NCC(=O)N[C@@H]([C@@H](C)O)C(=O)N1)[C@@H](C)O)C(C)C)C(=O)N[C@@H](Cc1ccc(O)cc1)C(=O)N[C@@H](CCC(N)=O)C(=O)N[C@@H](Cc1ccccc1)C(=O)N[C@H](C(=O)N[C@@H](CC(=O)O)C(=O)N[C@@H](CCCCN)C(=O)N[C@@H](CC(=O)O)C(=O)N[C@@H](CCCCN)C(=O)N[C@@H](CC(=O)O)C(=O)N[C@@H](CC(N)=O)C(=O)N[C@H](C(=O)N[C@@H](C)C(=O)N1CCC[C@H]1C(=O)N[C@@H](CCCNC(=N)N)C(=O)N[C@@H](CO)C(=O)N[C@@H](CCCCN)C(=O)N[C@H](C(=O)N[C@@H](CO)C(=O)N1CCC[C@H]1C(=O)N[C@@H](CCC(N)=O)C(=O)NCC(=O)N[C@@H](Cc1ccc(O)cc1)C(N)=O)[C@@H](C)CC)C(C)C)[C@@H](C)O [AM]
change in insulin secretion rate [1]: no change in insulin secretion rate; also recorded: not directly affected | inhibition of insulin secretion (rat isolated islets; AM concentration of 1 μM, freshly isolated islets): 78% | effect of AM on insulin secretion (rat isolated islets; isolated islets): inhibits insulin secretion in a dose-dependent manner; also recorded: dose-dependent reduction of insulin secretion; also recorded: reduces insulin secretion | stimulation of growth by exogenous AM [2]: ineffective in stimulating growth | growth suppressive activity against S. aureus (S. aureus): ineffective; also recorded: no apparent growth suppressive activity | antimicrobial activity against P. aeruginosa, 24 hours versus 6 hours (P. aeruginosa): greater antimicrobial activity
